Entries after “also recorded” stand apart in the source; their conditions may differ. Ends that are not written are not given here.
Experiments:
HUVEC [1] = experiment: HUVEC tube formation assay on Matrigel; format: cell-based, human
How it was run: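 HUVEC (15,000/well) plated on polymerized Matrigel in complete media with or without peptide for 19 h at 37 °C. Tube networks imaged by microscopy, one random field per well, in triplicate wells across at least two independent experiments.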

HUVEC [2] = format: cell-based, human
How it was run: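 Adhesion of 25,000 cells per well, with or without peptide, followed by real-time electrical impedance on electrode plates over 3 hours. At least two independent replicates, each run in duplicate.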

[3] = tested on: VEGF mediated retinal neovascularization; experiment: Rho/VEGF transgenic mice model of retinal neovascularization; format: in vivo; settings: 0.01, 0.1, or 1 μg into the mouse eye
Protocol: The ocular Rho/VEGF transgenic mice model of wet age-related macular degeneration also was used to test some of the peptides. Transgenic mice in which the rhodopsin promoter drives expression of VEGF in photoreceptors have the onset of VEGF production at P7 and develop extensive NV along the outer surface of the retina by P21 (Okamoto et al., 1997; To be et al., 1998). Mice hemizygous for the transgene (n=15 for each dose) were given an intraocular injection of 1 μl of PBS containing 0.01, 0.1, or 1 μg of peptide or scramble peptide in one eye at P7 and P14 and at P21 the mice were anesthetized, perfused with fluorescein-labeled dextran, and the total area of neovascularization on the outer surface of the retina was measured on retinal flat mounts by image analysis as above.

HUVEC [4] = experiment: HUVEC migration assay (RT-CIM); format: cell-based, human
How it was run: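 Real-time impedance (RT-CIM) transwell migration through fibronectin-coated (20 μg/mL) 8 μm membranes; 45,000 cells/well in serum-free medium ± peptides, fully supplemented EBM-2 as chemoattractant below. Cell index recorded over 20 h at 37 °C; ≥2 independent replicates, each in duplicate.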

[5] = tested on: lymphatic endothelial cells (LEC); experiment: LEC adhesion assay; format: cell-based
Protocol: (§1) Similar to the migration assays, the inhibition activity of the peptide in cellular adhesion was assessed using the RT-CIM technology. In this case, 25,000 cells/well were plated in 16 wells E-plates (Roche, Basel Switzerland) in the presence or absence of the peptide. The adhesion was monitored over time (3 hours) by measuring changes in the electrical impedance, which is a direct measure of the cells adhering on the electrodes. […] Assays were performed in at least two independent replicates and each replicate was performed using two experimental duplicates.

[6] = tested on: MDA-MB-231 breast cancer cells; experiment: MDA-MB-231 adhesion assay; format: cell-based
Protocol: as §1

[7] = tested on: choroidal neovascularization; experiment: Laser-induced choroidal neovascularization model; format: in vivo, C57BL/6 mice; settings: 0.01, 0.1, or 1 μg into the mouse eye
Protocol: The ocular laser-induced choroidal neovascularization (NV) model of wet age-related macular degeneration was used for testing. 5-6-week-old female pathogen-free C57BL/6 mice were anesthetized with ketamine hydrochloride (100 mg/kg body weight) and pupils were dilated. Laser photocoagulation (75-μm spot size, 0.1-sec duration, 120 mW) was performed in the 9, 12, and 3 o'clock positions of the posterior pole of each eye with the slit lamp delivery system of an OcuLight GL diode laser (Iridex, Mountain View, Calif.) and a handheld cover slip as a contact lens to view the retina. Production of a tissue bubble by the laser, which indicates rupture of Bruch's membrane, is an important factor in obtaining choroidal NV; therefore, only burns in which a bubble is produced are included in the study. […] At day 7 the mice that received the naked peptides were dosed again whereas the mice that received the particles were administered PBS. Intravitreous injections were done under a dissecting microscope with a Harvard Pump Microinjection System and pulled glass micropipettes. After 14 days, the mice were perfused with 1 mL of PBS containing 50 mg/mL of fluorescein-labeled dextran (2×10^6 Daltons average molecular weight; Sigma-Aldrich, St. Louis, Mo.) and choroidal flat mounts were examined by fluorescence microscopy. Images were captured with a Nikon Digital Still Camera DXM1200 (Nikon Instruments Inc., New York, N.Y.). Image analysis software (Image-Pro Plus; Media Cybernetics, Silver Spring, Md.) was used to measure the total area of choroidal NV at each rupture site with the investigator masked with respect to treatment group.

[8] = tested on: microvascular endothelial cells (MEC); experiment: MEC adhesion assay; format: cell-based
Protocol: as §1

## LRRFSTMPFMFININNVINF-NH2 [SP2024]
HUVEC [1]; 100 uM peptide
  Tube formation Inhibition (100 uM): Complete
HUVEC [1]; Yes/No summary
  Activity in Tube formation: Yes
HUVEC [2]; 3 h
  IC50: 2350 ± 1300 nM
HUVEC [2]; HUVEC, 100 uM peptide
  Adhesion Inhibition (100 uM): 94.45%
HUVEC [2]; HUVEC, Yes/No summary, active = inhibitory potential greater than 30%
  Activity in Adhesion: Yes
[3]
  area of retinal neovascularization: generally decreased
HUVEC [4]; 5 uM peptide
  Migration Inhibition (5 uM): 37.73%
HUVEC [4]; Yes/No summary, active = inhibitory potential greater than 30%
  Activity in Migration: Yes
[5]
  inhibition of adhesion of LEC: strong
[6]
  inhibition of adhesion of MDA-MB-231 cells: strong; also recorded: inhibition of cell adhesion
[7]
  area of choroidal neovascularization: generally decreased
[8]
  inhibition of adhesion of MEC: quite active

— US9056923B2, “Mimetic peptides derived from collagen type IV and their use for treating angiogenesis- and lymphagiogenesis-dependent diseases” (THE JOHNS HOPKINS UNIVERSITY, priority 2010, dated 2015)
